Reference: US20210130339A1, “COMPOUNDS” (GLAXOSMITHKLINE INTELLECTUAL PROPERTY DEVELOPMENT LIMITED, priority 2017, published 2021)

Key:
[1] = target: T1, recombinant full length LRRK2 (Homo sapiens, UniProt Q5S007); assay: Recombinant cellular LRRK2 AlphaScreen assay; type: cell-based; conditions: LRRK2 Ser935 phosphorylation, SH-SY5Y cells over-expressing recombinant full length LRRK2; read-out: pIC50 in the recombinant cellular LRRK2 AlphaScreen assay (converted)
T1 construct: A BacMam virus expressing full length recombinant LRRK2 was purchased from Invitrogen; host or cells: SH-SY5Y human neuroblastoma cells transduced with BacMam LRRK2 virus (MOI 50)
T1 sequence (Q5S007 whole entry): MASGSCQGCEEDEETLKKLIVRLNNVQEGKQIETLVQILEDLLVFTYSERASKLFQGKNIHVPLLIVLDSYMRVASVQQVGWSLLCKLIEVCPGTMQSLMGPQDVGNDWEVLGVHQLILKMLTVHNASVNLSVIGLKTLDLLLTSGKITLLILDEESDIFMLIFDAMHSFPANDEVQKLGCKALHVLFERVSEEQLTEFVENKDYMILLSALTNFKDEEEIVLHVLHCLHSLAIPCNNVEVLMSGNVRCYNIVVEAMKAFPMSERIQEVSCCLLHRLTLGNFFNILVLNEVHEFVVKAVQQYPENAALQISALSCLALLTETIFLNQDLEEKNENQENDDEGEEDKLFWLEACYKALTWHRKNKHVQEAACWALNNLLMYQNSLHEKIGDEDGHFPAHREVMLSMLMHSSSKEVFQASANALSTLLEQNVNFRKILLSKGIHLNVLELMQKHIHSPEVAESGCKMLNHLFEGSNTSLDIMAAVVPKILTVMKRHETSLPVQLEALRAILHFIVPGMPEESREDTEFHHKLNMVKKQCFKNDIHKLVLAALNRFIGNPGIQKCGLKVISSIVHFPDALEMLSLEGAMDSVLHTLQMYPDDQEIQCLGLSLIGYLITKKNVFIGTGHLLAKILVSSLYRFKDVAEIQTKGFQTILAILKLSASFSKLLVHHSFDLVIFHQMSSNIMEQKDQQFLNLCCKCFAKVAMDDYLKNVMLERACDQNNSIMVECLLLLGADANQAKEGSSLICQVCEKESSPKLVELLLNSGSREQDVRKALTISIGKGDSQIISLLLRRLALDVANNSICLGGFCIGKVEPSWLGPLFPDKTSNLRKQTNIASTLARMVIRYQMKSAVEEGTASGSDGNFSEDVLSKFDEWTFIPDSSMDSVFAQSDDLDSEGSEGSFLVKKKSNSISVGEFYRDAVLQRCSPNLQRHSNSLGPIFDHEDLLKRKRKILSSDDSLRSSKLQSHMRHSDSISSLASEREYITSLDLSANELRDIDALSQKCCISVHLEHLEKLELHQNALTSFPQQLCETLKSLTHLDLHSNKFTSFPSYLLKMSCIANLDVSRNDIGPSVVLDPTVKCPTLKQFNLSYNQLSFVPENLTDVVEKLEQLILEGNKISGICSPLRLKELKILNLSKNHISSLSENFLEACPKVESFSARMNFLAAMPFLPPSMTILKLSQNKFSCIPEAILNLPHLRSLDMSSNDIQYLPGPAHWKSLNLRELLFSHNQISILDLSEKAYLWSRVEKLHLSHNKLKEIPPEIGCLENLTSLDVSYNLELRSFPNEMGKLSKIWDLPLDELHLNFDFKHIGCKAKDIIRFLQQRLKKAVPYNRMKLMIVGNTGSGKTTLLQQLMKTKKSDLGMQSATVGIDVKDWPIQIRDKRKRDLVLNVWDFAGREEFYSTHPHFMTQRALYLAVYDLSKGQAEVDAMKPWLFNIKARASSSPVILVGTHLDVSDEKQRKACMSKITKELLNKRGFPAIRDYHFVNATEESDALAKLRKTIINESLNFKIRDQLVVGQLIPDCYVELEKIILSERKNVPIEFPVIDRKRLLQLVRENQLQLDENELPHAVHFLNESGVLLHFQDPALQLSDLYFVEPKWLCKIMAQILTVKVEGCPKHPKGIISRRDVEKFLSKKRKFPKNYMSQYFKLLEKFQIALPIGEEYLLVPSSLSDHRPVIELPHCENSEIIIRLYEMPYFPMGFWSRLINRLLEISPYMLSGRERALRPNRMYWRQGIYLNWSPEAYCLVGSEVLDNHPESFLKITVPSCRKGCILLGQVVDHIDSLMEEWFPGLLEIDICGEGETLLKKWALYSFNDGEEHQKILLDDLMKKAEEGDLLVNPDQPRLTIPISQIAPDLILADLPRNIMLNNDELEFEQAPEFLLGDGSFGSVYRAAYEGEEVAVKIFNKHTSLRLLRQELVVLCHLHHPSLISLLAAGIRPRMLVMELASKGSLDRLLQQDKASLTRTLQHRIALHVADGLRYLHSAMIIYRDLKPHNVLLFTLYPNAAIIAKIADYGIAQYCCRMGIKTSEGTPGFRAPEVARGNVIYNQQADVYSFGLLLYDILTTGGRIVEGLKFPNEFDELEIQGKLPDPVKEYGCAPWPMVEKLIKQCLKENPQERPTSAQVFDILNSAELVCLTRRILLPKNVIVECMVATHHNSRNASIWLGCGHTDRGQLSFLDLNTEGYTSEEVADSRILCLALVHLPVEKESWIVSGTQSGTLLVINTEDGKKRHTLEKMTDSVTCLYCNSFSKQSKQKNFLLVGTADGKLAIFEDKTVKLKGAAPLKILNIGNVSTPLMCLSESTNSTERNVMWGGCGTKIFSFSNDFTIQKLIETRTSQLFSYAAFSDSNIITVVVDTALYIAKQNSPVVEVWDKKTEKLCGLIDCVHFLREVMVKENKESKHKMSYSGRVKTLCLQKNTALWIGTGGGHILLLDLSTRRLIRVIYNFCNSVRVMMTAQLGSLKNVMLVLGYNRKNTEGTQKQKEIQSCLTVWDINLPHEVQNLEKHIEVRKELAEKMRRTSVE
From the text: b. Recombinant Cellular LRRK2 AlphaScreen Assay
To determine the activity of compounds against LRRK2 kinase activity in cells, the observed LRRK2 kinase-dependent modulation of LRRK2 Ser 935 phosphorylation (Dzamko et al., 2010, Biochem. J. 430: 405-413) was utilized to develop a quantitative 384 well plate-based immunoassay of LRRK2 Ser935 phosphorylation in the human neuroblastoma cell line SH-SY5Y, engineered to over-express recombinant full length LRRK2 protein. A BacMam virus expressing full length recombinant LRRK2 was purchased from Invitrogen and amplified by inoculation of SF-9 cells at MOI 0.3 for 4-5 days in Sf-900 III SFM medium supplemented with 3% fetal bovine serum. Infected cell cultures were then centrifuged at 2000 g for 20 minutes, viral supernatant titer determined by anti-gp64 plaque assay and stored at 4° C. Affinity-purified anti-phospho LRRK2 Ser935 sheep polyclonal antibody (Dzamko et al., 2010, Biochem. J. 430: 405-413) was biotinylated by standard methods (PerkinElmer). Anti-LRRK2 rabbit polyclonal antibody was purchased from Novus Biologicals. AlphaScreen Protein A IgG Kit (including acceptor and donor beads) was purchased from Perkin Elmer. SH-SY5Y cells were grown in DMEM/F12 medium with 10% dialysed fetal bovine serum and harvested by treatment with 0.5% trypsin-EDTA for 5 minutes at 37° C. followed by centrifugation at 1000 rpm for 4 minutes. The cell pellet was resuspended in Opti-MEM reduced serum media (Invitrogen) at 200,000 cells/ml and mixed with the BacMam LRRK2 virus at MOI=50. 50 μl cell solutions were then dispensed to each well of a 384-well plate and incubated at 37° C., 5% CO2 for 24 hours. Serial dilutions of test compounds were prepared in Opti-MEM reduced serum media (Invitrogen) and 5.6 ul transferred from compound plate to cell assay plate to achieve a top final assay concentration of 10 uM. DMSO was used in certain wells as controls. Cells were incubated at 37° C., 5% CO2 for 60 minutes. The medium was then removed and cells lysed by addition of 20 ul cell lysis buffer (Cell Signaling Technology) and incubation at 4° C. for 20 minutes. 10 ul of antibody/acceptor bead mix [(1/1000 biotinylated-pS935 LRRK2 antibody, 1/1000 total-LRRK2 antibody, 1/100 Acceptor beads in AlphaScreen detection buffer (25 mM Hepes (pH 7.4), 0.5% Triton X-100, 1 mg/ml Dextran 500 and 0.1% BSA)] was then added to each well and plates incubated for 2 hours at ambient temperature in the dark. 10 μl of donor beads solution (1/33.3 donor beads in AlphaScreen detection buffer) was then added to each well. Following incubation for a further 2 hours at ambient temperature in the dark, plates were read on an EnVision™ plate reader at emission 520-620 nm with excitation 680 nm. Dose response curve data was based on sigmoidal dose-response model.

[2] = target: T2, Full length G2019 human LRRK2 (Homo sapiens, UniProt Q5S007); assay: Full length G2019 human LRRK2 Inhibition Mass Spectrometry assay; type: biochemical; conditions: LRRKtide substrate, RapidFire mass spectrometry; read-out: pIC50 in the Full length G2019 human LRRK2 Inhibition Mass Spectrometry assay (converted)
T2 construct: purified recombinant Full length Flag-LRRK2 in assay buffer; made in house; host or cells: HEK293 6E cells transduced with BacMam virus (virus generated in Sf9 cells)
T2 sequence (Q5S007 with tags, fused parts or gaps R50H): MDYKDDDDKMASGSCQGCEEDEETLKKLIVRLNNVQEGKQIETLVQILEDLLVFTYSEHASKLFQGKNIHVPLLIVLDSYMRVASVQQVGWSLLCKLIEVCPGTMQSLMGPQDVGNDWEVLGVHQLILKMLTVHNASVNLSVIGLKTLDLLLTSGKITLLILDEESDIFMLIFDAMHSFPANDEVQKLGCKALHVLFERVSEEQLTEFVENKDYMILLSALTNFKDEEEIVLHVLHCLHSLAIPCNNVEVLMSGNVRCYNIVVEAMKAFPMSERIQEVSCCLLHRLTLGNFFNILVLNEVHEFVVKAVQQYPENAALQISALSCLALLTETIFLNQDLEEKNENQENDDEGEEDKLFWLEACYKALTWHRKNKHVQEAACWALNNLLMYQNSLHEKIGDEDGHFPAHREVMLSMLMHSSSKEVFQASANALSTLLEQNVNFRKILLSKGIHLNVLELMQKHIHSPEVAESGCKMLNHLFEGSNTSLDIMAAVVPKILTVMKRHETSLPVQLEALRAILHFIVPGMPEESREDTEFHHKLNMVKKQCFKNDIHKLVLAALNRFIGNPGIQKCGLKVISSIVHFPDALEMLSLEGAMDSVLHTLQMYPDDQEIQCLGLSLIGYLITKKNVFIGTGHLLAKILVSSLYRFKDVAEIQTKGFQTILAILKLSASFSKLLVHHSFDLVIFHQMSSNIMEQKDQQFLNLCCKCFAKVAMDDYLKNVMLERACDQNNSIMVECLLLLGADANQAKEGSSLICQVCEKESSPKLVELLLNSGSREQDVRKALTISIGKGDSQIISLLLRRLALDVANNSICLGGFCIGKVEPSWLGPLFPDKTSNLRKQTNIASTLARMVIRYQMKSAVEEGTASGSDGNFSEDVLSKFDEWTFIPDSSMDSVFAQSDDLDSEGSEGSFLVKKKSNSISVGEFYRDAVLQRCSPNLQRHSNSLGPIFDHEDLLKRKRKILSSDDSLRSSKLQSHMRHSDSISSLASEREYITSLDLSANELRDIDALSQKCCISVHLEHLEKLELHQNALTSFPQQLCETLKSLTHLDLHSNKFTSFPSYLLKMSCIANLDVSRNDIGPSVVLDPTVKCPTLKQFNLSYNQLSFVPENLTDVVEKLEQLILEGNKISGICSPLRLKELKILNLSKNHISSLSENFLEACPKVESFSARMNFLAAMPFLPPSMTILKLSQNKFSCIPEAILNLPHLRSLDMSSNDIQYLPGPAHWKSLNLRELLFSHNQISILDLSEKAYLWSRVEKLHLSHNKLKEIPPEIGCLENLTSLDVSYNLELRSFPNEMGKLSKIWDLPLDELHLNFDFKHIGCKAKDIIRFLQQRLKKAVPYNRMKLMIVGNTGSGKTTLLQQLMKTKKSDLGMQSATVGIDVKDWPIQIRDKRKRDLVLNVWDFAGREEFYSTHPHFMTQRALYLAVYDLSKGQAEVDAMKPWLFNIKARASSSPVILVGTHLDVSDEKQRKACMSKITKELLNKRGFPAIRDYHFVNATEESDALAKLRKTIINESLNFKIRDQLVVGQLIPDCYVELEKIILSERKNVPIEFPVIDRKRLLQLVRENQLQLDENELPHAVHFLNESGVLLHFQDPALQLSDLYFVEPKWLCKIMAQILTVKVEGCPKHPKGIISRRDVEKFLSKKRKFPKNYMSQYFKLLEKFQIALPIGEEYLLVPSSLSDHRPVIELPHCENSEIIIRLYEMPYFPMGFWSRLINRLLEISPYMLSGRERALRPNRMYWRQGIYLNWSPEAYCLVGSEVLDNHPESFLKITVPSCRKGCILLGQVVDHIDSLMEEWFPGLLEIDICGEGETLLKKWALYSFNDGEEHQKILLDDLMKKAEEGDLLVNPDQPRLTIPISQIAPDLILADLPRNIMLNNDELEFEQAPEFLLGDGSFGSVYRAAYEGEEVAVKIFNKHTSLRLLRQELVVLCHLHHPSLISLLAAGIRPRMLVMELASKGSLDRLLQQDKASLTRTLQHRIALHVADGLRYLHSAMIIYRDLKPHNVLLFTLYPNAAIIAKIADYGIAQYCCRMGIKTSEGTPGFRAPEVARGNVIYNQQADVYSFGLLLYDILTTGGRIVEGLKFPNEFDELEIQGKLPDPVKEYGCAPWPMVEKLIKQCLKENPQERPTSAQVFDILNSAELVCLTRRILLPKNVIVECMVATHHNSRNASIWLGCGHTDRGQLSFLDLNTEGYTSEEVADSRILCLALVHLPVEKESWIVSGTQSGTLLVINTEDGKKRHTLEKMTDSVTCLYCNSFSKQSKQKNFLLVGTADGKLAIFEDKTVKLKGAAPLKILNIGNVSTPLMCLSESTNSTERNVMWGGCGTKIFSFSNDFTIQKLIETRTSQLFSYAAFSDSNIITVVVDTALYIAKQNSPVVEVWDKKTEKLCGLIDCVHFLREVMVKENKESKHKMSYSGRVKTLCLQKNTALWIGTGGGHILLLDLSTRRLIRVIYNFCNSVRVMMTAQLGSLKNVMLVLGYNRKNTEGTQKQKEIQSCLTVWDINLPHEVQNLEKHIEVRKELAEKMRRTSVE
Procedure: a. Full Length G2019 Human LRRK2 Inhibition Mass Spectrometry Assay
This assay for Leucine Rich Repeat Kinase 2 (LRRK2) inhibition is based on the direct measurement of the peptide ‘LRRKtide’ (LRRKtide: RLGRDKYKT*LRQIRQ and “*” refers to the site of phosphorylation.) and phosphorylated ‘LRRKtide’ using a high throughput RapidFire mass spectrometry assay. Inhibitors are compounds that reduce the conversion of LRRKtide to phospho-LRRKtide.
HEK293 6E cells were incubated in a 37° C. incubator with a humidified atmosphere of 5% CO2 on an orbital shaker rotating at 110 rpm. On the day of transduction, the cell viability was higher than 98% and the cell density was in the range of 1×10^6˜1.5×10^6 cells/ml. HEK293 6E cells were centrifuged at 1,000 rpm for 10 min, and then the cells were resuspended in fresh Freestyle 293 expression medium (Invitrogen:12338) with 0.1% F-68 (Invitrogen:24040-032) but without antibiotics (G418) at density of 1×10^6 cells/ml. BacMam virus with Flag-hu LRRK2 (genotypically normal) gene was centrifuged at 40,000 g for 2 hours, then resuspended in fresh Freestyle 293 expression medium. The resuspended virus was added into the cells in at MOI of 10. The cells were incubated in a 37° C. incubator with a humidified atmosphere of 5% CO2 in air on an orbital shaker rotating at 110 rpm. Cultures were harvested at approximately 48 hours post-transduction by centrifugation at 4,000 rpm for 20 min and pellets were frozen for purification.
The suspended cells were lysed by sonication on ice for 30 min (2 secs on/4 sec off, 20% amplitude), and centrifuged at 10,000 rpm for 30 minutes at 4° C. The supernatant was incubated with 1 mL per litre of cell culture of anti-Flag magnetic beads (Sigma-Aldrich: M8823) at 4° C. for 3 hours, then the beads were washed by 5 mL (5 column volume) binding buffer (50 mM Tris pH7.5@ 4C, 500 mM NaCl, 0.5 mM EDTA, 0.1% TritonX-100, 10% glycerol, freshly add 2 mM DTT) for three times. The Flag tagged LRRK2 proteins were eluted by Elution buffer (50 mM Tris pH7.5@ 4C, 500 mM NaCl, 0.5 mM EDTA, 0.1% TritonX-100, 10% glycerol, freshly add 2 mM DTT, 250 ug/ml Flag peptide (Sigma-Aldrich:F3290)) at 4° C. for 2 hours. Flag peptide was removed by Zeba Spin Desalting Columns, 7K MWCO (Thermo-Fisher: 89893) and the buffer of eluted LRRK2 proteins was exchanged into Storage Buffer (50 mM Tris pH7.5@4C, 150 mM NaCl, 0.5 mM EDTA, 0.02% Triton X-100, 2 mM DTT and 50% Glycerol) using Amicon Ultra Centrifugal Filter Units (100 kD) (Merck: UFC910096). Fractions containing LRRK2 proteins were pooled, aliquoted and stored at −80° C. Protein concentration was determined by Bradford protein assay, and protein purity was analyzed by NuPAG Novex 4-12% Bis-Tris Protein Gels (Invitrogen: NP0322BOX).
• 1) A 10 mM test compound was dissolved in 100% DMSO and serially diluted 1 in 4. 100 nL of this dilution series was then added to a 384 well, v bottom polypropylene plate, excluding columns 6 and 18. 100 nL of DMSO was added to columns 6 and 18 as controls wells. Assay dilution gave a top final assay concentration of test compound of 100 μM • 2) 50 μl of 1% formic acid in laboratory grade water was added to column 18 using a multidrop combi dispenser to act as a pre stopped assay control. • 3) 5 μl of ‘enzyme solution’ containing 50 nM of purified recombinant Full length Flag-LRRK2 in assay buffer (50 mM Hepes (pH 7.2), 10 mM MgCl2, 150 mM NaCl, 5% glycerol, 0.0025% triton X-100 and 1 mM DTT) was added to all wells using a multidrop combi dispenser, giving a final assay concentration of 25 nM LRRK2 enzyme. […] Test plates were then incubated for 30 minutes at room temperature. • 4) 5 μl ‘substrate solution’ containing 50 uM LRRKtide peptide substrate and 4 mM ATP was added to all wells of the plate using a multidrop combi dispenser giving a final assay concentration of 25 uM LRRKtide and 2 mM ATP. Test plates were then incubated for 1 hour at room temperature. […]

Row | IC50 [1] | IC50 [2] | SMILES
1 | ≤ 100 nM | ≤ 100 nM | COc1nc(N2CCO[C@@H](CO)C2)cc(-n2ncc3cc(C)c(C4CCN(C5CCOC5)CC4F)cc32)n1 (single isomer, unassigned) [Example E119]
2 | ≤ 10 nM | ≤ 10 nM | COc1nc(N2CCO[C@@H](CO)C2)cc(-n2ncc3cc(C)c(C4CCN(C5CCOC5)CC4F)cc32)n1 (single isomer, unassigned) [Example E120]
3 | ≤ 100 nM | ≤ 100 nM | COc1nc(N2CCO[C@H](CO)C2)cc(-n2ncc3cc(C)c(C4CCN(C5CCOC5)CC4F)cc32)n1 (single isomer, unassigned) [Example E124]
4 | ≤ 10 nM | ≤ 1000 nM | COc1nc(N2CCOCC2)cc(-n2ncc3cc(C)c(C4CCN(C5CCOC5)CC4F)cc32)n1 (single isomer, unassigned) [Example E125, 4-(6-(6-(3-fluoro-1-(tetrahydrofuran-3-yl)-piperidin-4-yl)-5-methyl-1H-indazol-1-yl)-2-methoxypyrimidin-4-yl)morpholine]
5 | ≤ 100 nM | ≤ 100 nM | COc1nc(N2CCOCC2)cc(-n2ncc3cc(C)c(C4CCN(C5CCOC5)CC4F)cc32)n1 (single isomer, unassigned) [Example E126, 4-(6-(6-(3-fluoro-1-(tetrahydrofuran-3-yl)-piperidin-4-yl)-5-methyl-1H-indazol-1-yl)-2-methoxypyrimidin-4-yl)morpholine]
6 | ≤ 1000 nM | ≤ 100 nM | Cc1nc(N2CCOC(C(C)O)C2)cc(-n2ncc3cc(C)c(C4CCN(C5CCOC5)CC4)cc32)n1 (single isomer, unassigned) [Example E136, 1-(4-(2-methyl-6-(5-methyl-6-(1-(tetrahydrofuran-3-yl)piperidin-4-yl)-1H-indazol-1-yl)pyrimidin-4-yl)morpholin-2-yl)ethanol]
7 | ≤ 1000 nM | ≤ 100 nM | Cc1nc(N2CCOC(C(C)O)C2)cc(-n2ncc3cc(C)c(C4CCN(C5CCOC5)CC4)cc32)n1 (single isomer, unassigned) [Example E137, 1-(4-(2-methyl-6-(5-methyl-6-(1-(tetrahydrofuran-3-yl)piperidin-4-yl)-1H-indazol-1-yl)pyrimidin-4-yl)morpholin-2-yl)ethanol]

The next lines start with the molecule.

Row | SMILES | IC50 [1] | IC50 [2]
8 | Cc1nc(N2CC(C)(O)C2)cc(-n2ncc3cc(Cl)c(C4CCN(C5CCOC5)CC4)cc32)n1 (single isomer, unassigned) [Example E128, 1-(6-(5-chloro-6-(1-(tetrahydrofuran-3-yl)piperidin-4-yl)-1H-indazol-1-yl)-2-methyl-pyrimidin-4-yl)-3-methylazetidin-3-ol] | ≤ 1000 nM | ≤ 1000 nM
9 | Cc1nc(N2CCO[C@@H](CO)C2)cc(-n2ncc3cc(Cl)c(C4CCN(C5CCOC5)CC4)cc32)n1 (single isomer, unassigned) [Example E130] | ≤ 100 nM | ≤ 100 nM
10 | Cc1nc(N[C@H]2C[C@@H](O)C2)cc(-n2ncc3cc(C)c(C4CCN(C5CCOC5)CC4)cc32)n1 (single isomer, unassigned) [Example E133, Cis-3-((2-methyl-6-(5-methyl-6-(1-(tetrahydrofuran-3-yl)piperidin-4-yl)-1H-indazol-1-yl)pyrimidin-4-yl)amino)cyclobutanol] | ≤ 1000 nM | ≤ 1000 nM
11 | Cc1nc(N[C@H]2C[C@@H](O)C2)cc(-n2ncc3cc(C)c(C4CCN(C5CCOC5)CC4)cc32)n1 (single isomer, unassigned) [Example E134, Cis-3-((2-methyl-6-(5-methyl-6-(1-(tetrahydrofuran-3-yl)piperidin-4-yl)-1H-indazol-1-yl)pyrimidin-4-yl)amino)cyclobutanol] | ≤ 100 nM | ≤ 100 nM
12 | Cc1nc(N2CCOC(C(C)O)C2)cc(-n2ncc3cc(C)c(C4CCN(C5CCOC5)CC4)cc32)n1 (single isomer, unassigned) [Example E135, 1-(4-(2-methyl-6-(5-methyl-6-(1-(tetrahydrofuran-3-yl)piperidin-4-yl)-1H-indazol-1-yl)pyrimidin-4-yl)morpholin-2-yl)ethanol] | ≤ 100 nM | ≤ 100 nM
